Experimental data reported in patent US20060276445A1, “Bicyclic 6-alkylidene-penems as class-D beta-lactamases inhibitors” (priority 2005, published 2006).

What was measured:
[1] = test system: E. coli GC 2883 (OXA-10 + PSE-2); experiment: Antimicrobial susceptibility testing, microbroth dilution (NCCLS), piperacillin combined with β-lactamase inhibitor; format: cell-based; settings: MIC of piperacillin combined with a constant amount (4 ug/ml) of the inhibitor; class-D producing E. coli GC 2883 (OXA-10 + PSE-2); 35° C. for 18 hours
Description: Antimicrobial susceptibility testing. The in vitro activities of the antibiotic, piperacillin in this case, against resistant pathogens expressing class-D enzymes were determined by the microbroth dilution method as recommended by the National Committee for Clinical Laboratory Standards (NCCLS). (NCCLS. 2000. Methods for Dilution Antimicrobial Susceptibility Tests for Bacteria That Grow Aerobically; Approved Standards: M7-A5, vol. 19. National Committee for Clinical Laboratory Standards, Villanova, Pa.). Mueller-Hinton II broth (MHBII)(BBL Cockeysville, Md.), was used for the testing procedure. Microtiter plates containing 50 μL per well of two-fold serial dilutions of piperacillin combined with a constant amount (4 ug/ml) of a B-lactamase inhibitor were inoculated with 50 μL of inoculum to yield the appropriate density (10^5 CFU/mL) in 100 μL final volume. The plates were incubated for 18-22 hours at 35° C. in ambient air. […] The MIC50 data obtained by the above said procedure are enlisted in Table 1. […] Both OXA-10 and PSE-2 are class D β-lactamases. (Bush, K. Jacoby, G. A., Medeiros, A. A. Antimicrob. Agents Chemother., 1995, 39, 1211.)

[2] = test system: E. coli GC 2883 (OXA-10 + PSE-2); experiment: as above; format: cell-based; settings: Escherichia coli; piperacillin as control, without inhibitor

Row | Structure (SMILES) | Minimal Inhibitory Concentration (MIC50) Data [1] | further results
1 | O=C(O)C1=CS[C@@H]2/C(=C\c3cc4c(s3)CCN(Cc3ccccc3)C4)C(=O)N12 [Example 1, (5R,6Z)-6-[(5-benzyl-4,5,6,7-tetrahydrothieno[3,2-c]pyridin-2-yl)methylene]-7oxo-4-thia-1-azabicyclo[3.2.0]hept-2-ene-2-carboxylic acid] | – | melting point: 198 °C
2 | CN1CCn2cc(/C=C3/C(=O)N4C(C(=O)[O-])=CS[C@H]34)nc2C1.[Na+] [Example 2, (5R),(6Z)-6-(7-Methyl-5,6,7,8-tetrahydroimidazo[1,2-a]pyrazin-2-ylmethylene)-7-oxo-4-thia-1-aza-bicyclo[3.2.0]hept-2-ene-2-carboxylic acid, sodium salt] | 4 µg/mL | –
3 | O=C([O-])C1=CS[C@@H]2/C(=C\c3cn4c(n3)CNCC4)C(=O)N12.[Na+] [Example 3, (5R),(6Z)-7-Oxo-6-(5,6,7,8-tetrahydroimidazo[1,2-a]pyrazin-2-ylmethylene)-4-thia-1-azabicyclo[3.2.0]hept-2-ene-2-carboxylic acid, sodium salt] | 2 µg/mL | –
4 | COc1ccc(CN2CCc3sc(/C=C4/C(=O)N5C(C(=O)O)=CS[C@H]45)cc3C2)cc1 [Example 4] | 4 µg/mL | –
5 | O=C([O-])C1=CS[C@@H]2/C(=C\c3cn4c(n3)CSCC4)C(=O)N12.[Na+] [Example 5, (5R),(6Z)-6-(5,6-dihydro-8H-imidazo[2,1-c][1.4]thiazin-2-ylmethylene)-7-oxo-4-thia-1-azabicyclo[3.2.0]hept-2-ene-2-carboxylic acid, sodium salt] | 2 µg/mL | –
6 | O=C([O-])C1=CS[C@@H]2/C(=C\c3cn4c(n3)CCC4)C(=O)N12.[Na+] [Example 6, (5R),(6Z)-6-(6,7-Dihydro-5H-pyrrolo[1,2-a]imidazol-2-ylmethylene)-7-oxo-4-thia-1-aza-bicyclo[3.2.0]hept-2-ene-2-carboxylic acid, sodium salt] | 2 µg/mL | –
7 | O=C([O-])C1=CS[C@@H]2/C(=C\c3cn4c(n3)COCC4)C(=O)N12.[Na+] [Example 7, (5R),(6Z)-6-(5,6-Dihydro-8H-imidazo[2,1-c][1,4]oxazin-2-ylmethylene)-7-oxo-4-thia-1-azabicyclo[3.2.0]hept-2-ene-2-carboxylic acid, sodium salt] | 4 µg/mL | –
8 | O=C([O-])C1=CS[C@@H]2/C(=C\c3cc4n(n3)CCC4)C(=O)N12.[Na+] [Example 8, (5R),(6Z)-6-(5,6-Dihydro-4H-pyrrolo[1,2-b]pyrazol-2-ylmethylene)-7-oxo-4-thia-1-azabicyclo[3.2.0]hept-2-ene-2-carboxylic acid, sodium salt] | 4 µg/mL | –
9 | CN1Cc2nc(/C=C3/C(=O)N4C(C(=O)[O-])=CS[C@H]34)cn2CC1=O.[Na+] [Example 10, (5R),(6Z)-6-(7-Methyl-6-oxo-5,6,7,8-tetrahydro-imidazo[1,2-a]pyrazin-2-ylmethylene)-7-oxo-4-thia-1-aza-bicyclo[3.2.0]hept-2-ene-2-carboxylic acid sodium salt] | 8 µg/mL | –
10 | CN1CCc2sc(C=C3C(=O)N4C(C(=O)O)=CSC34)cc2C1 (stereo not drawn) [Example 17, 6-(5-Methyl-4,5,6,7-tetrahydro-thieno[3,2-c]pyridin-2-ylmethylene)-7-oxo-4-thia-1-aza-bicyclo[3.2.0]hept-2-ene-2-carboxylic acid] | – | melting point: > 250 °C
11 | CCOC(=O)N1CCc2sc(C=C3C(=O)N4C(C(=O)O)=CSC34)cc2C1 (stereo not drawn) [Example 18, 2-(2-Carboxy-7-oxo-4-thia-1-aza-bicyclo[3.2.0]hept-2-en-6-ylidenemethyl)-6,7-dihydro-4H-thieno[3,2-c]pyridine-5-carboxylic acid ethyl ester] | – | melting point: > 250 °C
12 | O=C([O-])C1=CS[C@@H]2/C(=C\c3cn4c(n3)CN(Cc3ccccc3)CC4)C(=O)N12.[Na+] [Example 20, (5R),(6Z)-6-(7-Benzyl-5,6,7,8-tetrahydroimidazo[1,2-a]pyrazin-2-ylmethylene)-7-oxo-4-thia-1-azabicyclo[3.2.0]hept-2-ene-2-carboxylic acid, sodium salt] | 16 µg/mL | –
13 | O=C(O)C1=CS[C@@H]2/C(=C\c3cc4c(s3)CCN(Cc3cccnc3)C4)C(=O)N12 [Example 21] | 8 µg/mL | –
14 | O=C(O)C1=CS[C@@H]2/C(=C\c3cc4c(s3)CCN(C(=O)c3cccnc3)C4)C(=O)N12 [Example 22] | 16 µg/mL | –
15 | O=C(O)C1=CS[C@@H]2/C(=C\c3cc4c(s3)CCN(C(=O)Cc3ccccc3)C4)C(=O)N12 [Example 23] | 8 µg/mL | –
16 | O=C([O-])C1=CS[C@@H]2/C(=C\c3cc4n(n3)CCS(=O)(=O)C4)C(=O)N12.[Na+] [Example 24, (5R),(6Z)-6-(5,5-Dioxo-4,5,6,7-tetrahydro-5λ^6-pyrazolo[5,1-c][1,4]thiazin-2-ylmethylene)-7-oxo-4-thia-1-azabicyclo[3.2.0]hept-2-ene-2-carboxylic acid, sodium salt] | 4 µg/mL | –
17 | O=C([O-])C1=CS[C@@H]2/C(=C\c3cc4n(n3)CCNC4)C(=O)N12.[Na+] [Example 25, (5R),(6Z)-7-Oxo-6-(4,5,6,7-tetrahydropyrazolo[1,5-a]pyrazin-2-ylmethylene)-4-thia-1-aza-bicyclo[3.2.0]hept-2-ene-2-carboxylic acid, sodium salt] | 4 µg/mL | –
18 | CC1(C)Cc2cc(/C=C3/C(=O)N4C(C(=O)[O-])=CS[C@H]34)nn2C1.[Na+] [Example 26, (5R)(6Z)-6-(5,5-Dimethyl-4H-1.6a-diazapentalen-2-ylmethylene)-7-oxo-4-thia-1-azabicyclo[3.2.0]hept-2-ene-2-carboxylic acid, sodium salt] | 4 µg/mL | –
19 | O=C([O-])C1=CS[C@@H]2/C(=C\c3cc4c(o3)CCC4)C(=O)N12.[Na+] [Example 27, (5R),(6Z)-6-(5,6-Dihydro-4H-cyclopenta[b]furan-2-ylmethylene)-7-oxo-4-thia-1-azabicyclo[3.2.0]hept-2-ene-2-carboxylic acid, sodium salt] | 2 µg/mL | –
20 | CC1(C)Cn2cc(/C=C3/C(=O)N4C(C(=O)[O-])=CS[C@H]34)nc2CN1.[Na+] [Example 29, (5R),(6Z)-6-(6,6-Dimethyl-5,6,7,8-tetrahydroimidazo[1,2-a]pyrizin-2-ylmethylene)-7-oxo-4-thia-1-azabicyclo[3.2.0]hept-2-ene-2-carboxylic acid, sodium salt] | 4 µg/mL | –
21 | O=C(O)C1=CS[C@@H]2/C(=C\c3cnc4n3CCSC4)C(=O)N12 [Example 30, (5R),(6Z)-6-(5,6-Dihydro-8-H-imidazo[2,1-c][1,4]thiazin-3-ylmethylene)-7-oxo-4-thia-1-azabicyclo[3.2.0]hept-2-ene-2-carboxylic acid] | 4 µg/mL | –
22 | CC(=O)N1CCc2sc(/C=C3/C(=O)N4C(C(=O)O)=CS[C@H]34)cc2C1 [Example 33, (5R,6Z)-6-[(5-acetyl-4,5,6,7-tetrahydrothieno[3,2-c]pyridin-2-yl)methylene]-oxo-4-thia-1-azabicyclo[3.2.0.]hept-2-ene-2-carboxylic acid] | 16 µg/mL | –
23 | O=C([O-])C1=CS[C@@H]2/C(=C\c3cc4n(n3)CCCO4)C(=O)N12.[Na+] [Example 35, (5R)(6Z)-6-(6,7-5H-Dihydropyrazolo[5,1-b]oxazin-2-Ylmethylene)-7-oxo-4-thia-1-azabicyclo[3.2.1]hept-2-ene-2-carboxylic acid, sodium salt] | 2 µg/mL | –
24 | O=C([O-])CCC(=O)N1CCn2nc(/C=C3/C(=O)N4C(C(=O)[O-])=CS[C@H]34)cc2C1.[Na+].[Na+] [Example 36, (5R),(6Z)-6-[5-(3-carboxypropionyl)-4,5,6,7-tetrahydropyrazolo[1,5-a]pyrazin-2-ylmethylene]-7-oxo-4-thia-1-azabicyclo[3.2.0]hept-2-ene-carboxylic acid, disodium salt] | 4 µg/mL | –
25 | COCC(=O)N1CCn2nc(/C=C3/C(=O)N4C(C(=O)[O-])=CS[C@H]34)cc2C1.[Na+] [Example 37, (5R),(6Z)-6-[5-(2-methoxyacetyl)-4,5,6,7-tetrahydropyrazolo[1,5-a]pyrazin-2-ylmethylene]-7-oxo-4-thia-1-azabicyclo[3.2.0]hept-2-ene-carboxylic acid, sodium salt] | 2 µg/mL | –
26 | O=C([O-])C1=CS[C@@H]2/C(=C\c3cc4n(n3)CCN(C3=NCCS3)C4)C(=O)N12.[Na+] [Example 38, (5R),(6Z)-6-[5-(4,5-Dihydrothiazol-2-yl)-4,5,6,7-tetrahydropyrazolo[1,5-a]pyrazin-2-ylmethylene]-7-oxo-4-thia-1-azabicyclo[3.2.0]hept-2-ene-2-carboxylic acid sodium salt] | 2 µg/mL | –
27 | CCN1CCN(C(=O)N[C@@H](C(=O)N[C@@H]2C(=O)N3[C@@H]2SC(C)(C)[C@@H]3C(=O)O)c2ccccc2)C(=O)C1=O [piperacillin] | – | MIC50 [2]: > 64 µg/mL
